Where “and” joins values, the source holds several entries; their conditions need not be identical. Equal values may be shown once.
target: Syk (Homo sapiens, UniProt P43405); assay: High Throughput Syk Biochemical Assay (KinEASE TR-FRET); conditions: TABLE D, 20 μM ATP, 1 μM biotinylated peptide, 0.015 nM Syk, 30 min at room temperature, read-out: IC50
Method: High Throughput Syk Biochemical Assay
Syk activity was measured using KinEASE (Cisbio), a time-resolved fluorescence resonance energy transfer (TR-FRET) immunoassay. In this assay. Syk-catalyzes the phosporylation of a XL665-labeled peptide substrate. Europium conjugated phospho-tyrosine specific antibody binds the resulting phosphorylated peptide. Formation of phosphorylated peptide is quantified by TR-FRET with Europium as the donor and XL665 the acceptor in a 2-step endpoint assay. In brief, test compounds serially diluted in DMSO were delivered into Corning white, low volume, non-binding 384 well plates using the Echo 550 acoustic liquid dispenser (Labcyte®). Syk enzyme and substrates were dispensed into assay plates using a Multi-Flo (Bio-Tek Instruments). […] Percent inhibition was calculated as follows: % Inhibition=100×(RatioSample−Ratio0% Inhibition)/(Ratio100% Inhibition−Ratio0% Inhibition)

C[C@@H](Oc1nc(-c2ccc3c(c2)C(=O)NCCO3)cc2ncn(C)c12)[C@H]1CNC(=O)C1 [7-(3-methyl-4-((R)-1-((R)-5-oxopyrrolidin-3-yl)ethoxy)-3H-imidazo[4,5-c]pyridin-6-yl)-3,4-dihydrobenzo[f][1,4]oxazepin-5(2H)-one] and C[C@@H](Oc1nc(-c2cccc(S(C)(=O)=O)c2)cc2ncn(C)c12)[C@H]1CNC(=O)C1 [(R)-4-((R)-1-(3-methyl-6-(3-(methylsulfonyl)phenyl)-3H-imidazo[4,5-c]pyridin-4-yloxy)ethyl)pyrrolidin-2-one] are within 1.5-fold of each other in IC50: 30.6 nM for the first, 42.5 nM for the second.

Going from COc1ccc(-c2cc3nc(C)n(C)c3c(O[C@H](C)[C@H]3CNC(=O)C3)n2)cc1OC [(4R)-4-((1R)-1-(6-(3,4-dimethoxyphenyl)-2,3-dimethyl-3a,7a-dihydro-3H-imidazo[4,5-c]pyridin-4-yloxy)ethyl)pyrrolidin-2-one] to COc1ccc(-c2cc3nc(C)n(C(F)F)c3c(O[C@H](C)[C@H]3CNC(=O)C3)n2)cc1OC [(R)-4-((R)-1-(3-(difluoromethyl)-6-(3,4-dimethoxyphenyl)-2-methyl-3H-imidazo[4,5-c]pyridin-4-yloxy)ethyl)pyrrolidin-2-one], the IC50 rises from 25.4 nM to 50.8 nM (2-fold).

Compared with COc1ccc(-c2cc3ncn(CC(F)F)c3c(O[C@H](C)[C@H]3CNC(=O)C3)n2)cc1OC [(R)-4-((R)-1-(3-(2,2-difluoroethyl)-6-(3,4-dimethoxyphenyl)-3H-imidazo[4,5-c]pyridin-4-yloxy)ethyl)pyrrolidin-2-one], COc1ccc(-c2cc3ncn(C(F)F)c3c(O[C@H](C)[C@H]3CNC(=O)C3)n2)cc1OC [(R)-4-((R)-1-(3-(difluoromethyl)-6-(3,4-dimethoxyphenyl)-3H-imidazo[4,5-c]pyridin-4-yloxy)ethyl)pyrrolidin-2-one] is 18-fold lower in IC50: 19.5 nM for the first, 1.1 nM for the second. The second is the more potent here.

First: COc1ccc(-c2cc3ncn(C4CCC4)c3c(O[C@H](C)[C@H]3CNC(=O)C3)n2)cc1OC [(R)-4-((R)-1-(3-cyclobutyl-6-(3,4-dimethoxyphenyl)-3H-imidazo[4,5-c]pyridin-4-yloxy)ethyl)pyrrolidin-2-one]
Second: COc1ccc(-c2cc3ncn(C4CC4)c3c(O[C@H](C)[C@H]3CNC(=O)C3)n2)cc1OC [(R)-4-((R)-1-(3-cyclopropyl-6-(3,4-dimethoxyphenyl)-3H-imidazo[4,5-c]pyridin-4-yloxy)ethyl)pyrrolidin-2-one]
The IC50 of the first is 15-fold higher: 23.5 nM for the first, 1.6 nM for the second. The second is the more potent here.

Compared with COc1ccc(-c2cc3nc(C)n(C4CC4)c3c(O[C@H](C)[C@H]3CNC(=O)C3)n2)cc1OC [(R)-4-((R)-1-(3-cyclopropyl-6-(3,4-dimethoxyphenyl)-2-methyl-3H-imidazo[4,5-c]pyridin-4-yloxy)ethyl)pyrrolidin-2-one], COc1cc(-c2cc3ncn(C)c3c(O[C@H](C)[C@H]3CNC(=O)C3)n2)cc(OC)c1OC [(R)-4-((R)-1-(3-methyl-6-(3,4,5-trimethoxyphenyl)-3H-imidazo[4,5-c]pyridin-4-yloxy)ethyl)pyrrolidin-2-one] is 18-fold lower in IC50: 95.8 nM for the first, 5.26 nM for the second.

C[C@@H](Oc1nc(-c2cnn(CC(F)(F)F)c2)cc2ncn(C)c12)[C@H]1CNC(=O)C1 [(R)-4-((R)-1-(3-methyl-6-(1-(2,2,2-trifluoroethyl)-1H-pyrazol-4-yl)-3H-imidazo[4,5-c]pyridin-4-yloxy)ethyl)pyrrolidin-2-one] and C[C@@H](Oc1nc(-c2cnn(C)c2)cc2ncn(C)c12)[C@H]1CNC(=O)C1 [(R)-4-((R)-1-(3-methyl-6-(1-methyl-1H-pyrazol-4-yl)-3H-imidazo[4,5-c]pyridin-4-yloxy)ethyl)pyrrolidin-2-one] are within 1.5-fold of each other in IC50: 20.8 nM for the first, 24.3 nM for the second.

Going from C[C@@H](Oc1nc(-c2cnn(C3COC3)c2)cc2ncn(C)c12)[C@H]1CNC(=O)C1 [(R)-4-((R)-1-(3-methyl-6-(1-(oxetan-3-yl)-1H-pyrazol-4-yl)-3H-imidazo[4,5-c]pyridin-4-yloxy)ethyl)pyrrolidin-2-one] to C[C@@H](Oc1nc(-c2cnn(C3CCOCC3)c2)cc2ncn(C)c12)[C@H]1CNC(=O)C1 [(R)-4-((R)-1-(3-methyl-6-(1-(tetrahydro-2H-pyran-4-yl)-1H-pyrazol-4-yl)-3H-imidazo[4,5-c]pyridin-4-yloxy)ethyl)pyrrolidin-2-one], the IC50 falls from 23.5 nM to 10.2 nM (2.3-fold). The second is the more potent here.

Compared with C[C@@H](Oc1nc(-c2cccc(N3CCOCC3)c2)cc2ncn(C)c12)[C@H]1CNC(=O)C1 [(R)-4-((R)-1-(3-methyl-6-(3-morpholinophenyl)-3H-imidazo[4,5-c]pyridin-4-yloxy)ethyl)pyrrolidin-2-one], C[C@@H](Oc1nc(-c2ccc(N3CCNCC3)cc2)cc2ncn(C)c12)[C@H]1CNC(=O)C1 [(R)-4-((R)-1-(3-methyl-6-(4-(piperazin-1-yl)phenyl)-3H-imidazo[4,5-c]pyridin-4-yloxy)ethyl)pyrrolidin-2-one] is 12-fold lower in IC50: 102 nM for the first, 8.28 nM for the second. The second is the more potent here.

Going from C[C@@H](Oc1nc(-c2ccc(N3CCN(S(C)(=O)=O)CC3)cc2)cc2ncn(C)c12)[C@H]1CNC(=O)C1 [(R)-4-((R)-1-(3-methyl-6-(4-(4-(methylsulfonyl)piperazin-1-yl)phenyl)-3H-imidazo[4,5-c]pyridin-4-yloxy)ethyl)pyrrolidin-2-one] to C[C@@H](Oc1nc(-c2ccc(N3CCN(C4COC4)CC3)cc2)cc2ncn(C)c12)[C@H]1CNC(=O)C1 [(R)-4-((R)-1-(3-methyl-6-(4-(4-(oxetan-3-yl)piperazin-1-yl)phenyl)-3H-imidazo[4,5-c]pyridin-4-yloxy)ethyl)pyrrolidin-2-one], the IC50 rises from 4.46 nM to 8.21 nM (1.8-fold). The first is the more potent here.

With C[C@@H](Oc1nc(-c2ccc(S(C)(=O)=O)cc2)cc2ncn(C)c12)[C@H]1CNC(=O)C1 [(R)-4-((R)-1-(3-methyl-6-(4-(methylsulfonyl)phenyl)-3H-imidazo[4,5-c]pyridin-4-yloxy)ethyl)pyrrolidin-2-one] the IC50 was 27.7 nM.

With C[C@@H](Oc1nc(-c2ccc(N3CCOCC3)cc2)cc2ncn(C(F)F)c12)[C@H]1CNC(=O)C1 [(R)-4-((R)-1-(3-(difluoromethyl)-6-(4-morpholinophenyl)-3H-imidazo[4,5-c]pyridin-4-yloxy)ethyl)pyrrolidin-2-one] the IC50 was 1.55 nM and 1.25 nM.

same assay, conditions: table 'ALL NEW COMPOUNDS IN 2014', 20 μM ATP, 1 μM biotinylated peptide, 0.015 nM Syk, 30 min at room temperature, read-out: Syk IC50

First: C[C@@H](Oc1nc(-c2ccc(N3CCN(C4COC4)CC3)c(C#N)c2)cc2ncn(C3CC3)c12)[C@H]1CNC(=O)C1 [5-(3-cyclopropyl-4-((R)-1-((R)-5-oxopyrrolidin-3-yl)ethoxy)-3H-imidazo[4,5-c]pyridin-6-yl)-2-(4-(oxetan-3-yl)piperazin-1-yl)benzonitrile]
Second: O=C1C[C@@H](COc2nc(-c3ccc(N4CCN(C5COC5)CC4)cc3)cc3ncn(C4CC4)c23)CN1 [(R)-4-(((3-cyclopropyl-6-(4-(4-(oxetan-3-yl)piperazin-1-yl)phenyl)-3H-imidazo[4,5-c]pyridin-4-yl)oxy)methyl)pyrrolidin-2-one]
The IC50 of the first is 13-fold lower: 5.21 nM for the first, 65.3 nM for the second. The first is the more potent here.

C[C@@H](Oc1nc(-c2cnc3c(c2)N(C)C(=O)C3(C)C)cc2ncn(C3CC3)c12)[C@H]1CNC(=O)C1 [6-(3-cyclopropyl-4-((R)-1-((R)-5-oxopyrrolidin-3-yl)ethoxy)-3H-imidazo[4,5-c]pyridin-6-yl)-1,3,3-trimethyl-1H-pyrrolo[3,2-b]pyridin-2(3H)-one] and C[C@@H](Oc1nc(-c2ccc3c(c2)N(C)C(=O)C32CN(C)C2)cc2ncn(C3CC3)c12)[C@H]1CNC(=O)C1 [6′-(3-cyclopropyl-4-((R)-1-((R)-5-oxopyrrolidin-3-yl)ethoxy)-3H-imidazo[4,5-c]pyridin-6-yl)-1,1′-dimethylspiro[azetidine-3,3′-indolin]-2′-one] are within 1.5-fold of each other in IC50: 8.85 nM for the first, 7.55 nM for the second.

Going from C[C@@H](Oc1nc(-c2ccc3c(c2)NC(=O)C32CCN(S(C)(=O)=O)CC2)cc2ncn(C3CC3)c12)[C@H]1CNC(=O)C1 [6-(3-cyclopropyl-4-((R)-1-((R)-5-oxopyrrolidin-3-yl)ethoxy)-3H-imidazo[4,5-c]pyridin-6-yl)-1′-(methylsulfonyl)spiro[indoline-3,4′-piperidin]-2-one] to C[C@@H](Oc1nc(-c2ccc3c(c2)NC(=O)C3)cc2ncn(C3CC3)c12)[C@H]1CNC(=O)C1 [6-(3-cyclopropyl-4-((R)-1-((R)-5-oxopyrrolidin-3-yl)ethoxy)-3H-imidazo[4,5-c]pyridin-6-yl)indolin-2-one], the IC50 rises from 1.08 nM to 1.75 nM (1.6-fold). The first is the more potent here.

C[C@@H](Oc1nc(-c2ccc(N3CC4CC(C3)N4C3COC3)cc2)cc2ncn(C3CC3)c12)[C@H]1CNC(=O)C1 [(4R)-4-((1R)-1-((3-cyclopropyl-6-(4-(6-(oxetan-3-yl)-3,6-diazabicyclo[3.1.1]heptan-3-yl)phenyl)-3H-imidazo[4,5-c]pyridin-4-yl)oxy)ethyl)pyrrolidin-2-one] and C[C@@H](Oc1nc(-c2ccc(N3CC4CC(C3)O4)cc2)cc2ncn(C3CC3)c12)[C@H]1CNC(=O)C1 [(4R)-4-((1R)-1-((6-(4-(6-oxa-3-azabicyclo[3.1.1]heptan-3-yl)phenyl)-3-cyclopropyl-3H-imidazo[4,5-c]pyridin-4-yl)oxy)ethyl)pyrrolidin-2-one] are within 1.5-fold of each other in IC50: 2.69 nM for the first, 3.21 nM for the second.

First: C[C@@H](Oc1cc(-c2ccc(N3CC4CC(C3)O4)cn2)cc2ncn(C3CC3)c12)[C@H]1CNC(=O)C1 [(4R)-4-((1R)-1-((5-(5-(6-oxa-3-azabicyclo[3.1.1]heptan-3-yl)pyridin-2-yl)-1-cyclopropyl-1H-benzo[d]imidazol-7-yl)oxy)ethyl)pyrrolidin-2-one]
Second: C[C@@H](Oc1nc(-c2ccc(N3CC4CC(C3)N4)cc2)cc2ncn(C3CC3)c12)[C@H]1CNC(=O)C1 [(4R)-4-((1R)-1-((6-(4-(3,6-diazabicyclo[3.1.1]heptan-3-yl)phenyl)-3-cyclopropyl-3H-imidazo[4,5-c]pyridin-4-yl)oxy)ethyl)pyrrolidin-2-one]
The IC50 of the first is 2.4-fold higher: 5.57 nM for the first, 2.29 nM for the second. The second is the more potent here.

Reference: patent US10005774B2, “Syk inhibitors” (Gilead Sciences, Inc., priority 2013, dated 2018)
